In patent publication US20240041042A1, “1-(PYRIDYL)-5-AZINYLPYRAZOLE DERIVATIVES, AND THEIR USE FOR CONTROL OF UNDESIRED PLANT GROWTH” (Bayer Aktiengesellschaft, priority 2020, published 2024):

Key:
Format in all cases: in vivo
[1] = tested on: Polygonum convolvulus (POLCO); assay: Post-emergence herbicidal action against POLCO
How it was run: (§1)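 Values are percent visual activity (0% like control, 100% plants dead) after about 3 weeks in the greenhouse. Treatment: post-emergence spray at one-leaf stage, 600 l/ha spray volume, 0.5% additive, doses 320 g/ha or lower.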

[2] = tested on: Echinochloa crus-galli (ECHCG); assay: Post-emergence herbicidal action against ECHCG
How it was run: as §1

Setaria viridis (SETVI) [3] = assay: Pre-emergence herbicidal action against SETVI
How it was run: (§2)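 Herbicide applied to soil before seedling emergence, at 600 l/ha spray volume with 0.5% additive and rates up to 320 g/ha. Evaluation: visual percentage effect, about 3 weeks later, greenhouse-grown pots compared with untreated ones.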

Avena fatua (AVEFA) [4] = assay: Pre-emergence herbicidal action against AVEFA; conditions: 320 g/ha, visual scoring after about 3 weeks vs untreated controls
How it was run: as §2

[5] = tested on: Amaranthus retroflexus (AMARE); assay: Pre-emergence herbicidal action against AMARE; conditions: visual scoring after about 3 weeks vs untreated controls
How it was run: as §2

Oryza sativa (ORYSA) [6] = conditions: crop plant compatibility, 80 g/ha, effect in comparison to untreated controls
How it was run: (§3)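 Foliar application at the one-leaf stage: WP/EC formulation, 0.5% additive, 600 l/ha water. Greenhouse-grown in sandy loam. Endpoint is visual % injury relative to untreated controls at about 3 weeks.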

Avena fatua (AVEFA) [7] = assay: Post-emergence herbicidal action against AVEFA; conditions: visual rating about 3 weeks after treatment
How it was run: as §1

[8] = tested on: Pharbitis purpurea (PHBPU); assay: Post-emergence herbicidal action against PHBPU
How it was run: as §1

[9] = tested on: Verconica persica (VERPE); assay: Post-emergence herbicidal action against VERPE
How it was run: as §1

[10] = tested on: Amaranthus retroflexus (AMARE); assay: Post-emergence herbicidal action against AMARE
How it was run: as §1

Lolium rigidum (LOLRI) [11] = assay: Pre-emergence herbicidal action against LOLRI; conditions: dosage 320 g/ha
How it was run: as §2

[12] = tested on: Matricaria inodora (MATIN); assay: Pre-emergence herbicidal action against MATIN
How it was run: as §2

[13] = tested on: Abutilon theophrasti (ABUTH); assay: Post-emergence herbicidal action against ABUTH; conditions: visual rating about 3 weeks after treatment vs untreated controls (100% = plants have died, 0% = like control plants)
How it was run: as §1

[14] = tested on: Alopecurus myosuroides (ALOMY); assay: Pre-emergence herbicidal action against ALOMY; conditions: scored visually after about 3 weeks, 100% = plants have died
How it was run: as §2

Viola tricolor (VIOTR) [15] = assay: Pre-emergence herbicidal action against VIOTR
How it was run: as §2

[16] = tested on: Pharbitis purpurea (PHBPU); assay: Pre-emergence herbicidal action against PHBPU
How it was run: as §2

[17] = tested on: Alopecurus myosuroides (ALOMY); assay: Post-emergence herbicidal action against ALOMY; conditions: visual rating about 3 weeks after treatment vs untreated controls (100% = plants have died, 0% = like control plants)
How it was run: as §1

[18] = tested on: Polygonum convolvulus (POLCO); assay: Pre-emergence herbicidal action against POLCO
How it was run: as §2

Lolium rigidum (LOLRI) [19] = assay: Post-emergence herbicidal action against LOLRI; conditions: dosage 320 g/ha
How it was run: as §1

[20] = tested on: Verconica persica (VERPE); assay: Pre-emergence herbicidal action against VERPE
How it was run: as §2

Viola tricolor (VIOTR) [21] = assay: Post-emergence herbicidal action against VIOTR
How it was run: as §1

[22] = tested on: Matricaria inodora (MATIN); assay: Post-emergence herbicidal action against MATIN; conditions: dosage 320 g/ha
How it was run: as §1

[23] = tested on: Echinochloa crus-galli (ECHCG); assay: Pre-emergence herbicidal action against ECHCG
How it was run: as §2

Oryza sativa (ORYSA) [24] = conditions: pre-emergence, 80 g/ha, crop plant compatibility, in comparison to untreated controls
How it was run: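 Scoring: visual, % of untreated control, about 3 weeks after a pre-emergence application to the soil surface. Application used WP or EC formulations diluted in water with 0.5% additive at 600 l/ha; dosage levels are marked by suffixes a, b and c.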

Setaria viridis (SETVI) [25] = assay: Post-emergence herbicidal action against SETVI; conditions: dosage 320 g/ha
How it was run: as §1

Zea mays (ZEAMX) = conditions: crop plant compatibility, 80 g/ha, effect vs untreated controls
How it was run: as §3

[26] = 320 g/ha, visual rating about 3 weeks after treatment

For `CCOC(=O)COc1nn(-c2nc(F)ccc2F)c(-c2cncc(F)c2)c1Br` [Example I-193], the “Post-emergence action against POLCO in %” value ([1]; dosage 80 g/ha) was 80%, the “Post-emergence action against POLCO in %” value ([1]; dosage 320 g/ha) was 80% and the “Post-emergence action against ECHCG in %” value ([2]; dosage 80 g/ha) was 90%. For the same compound, the “Post-emergence action against ECHCG in %” value ([2]; dosage 320 g/ha) was 90%, the “Pre-emergence action against SETVI in %” value (Setaria viridis (SETVI) [3]; dosage 80 g/ha) was 100% and the “Pre-emergence action against SETVI in %” value (Setaria viridis (SETVI) [3]; dosage 320 g/ha) was 100%. For the same compound, the “Pre-emergence action against AVEFA in %” value (Avena fatua (AVEFA) [4]) was 90%, the “Pre-emergence action against AMARE in %” value ([5]; 80 g/ha) was 80% and the “Pre-emergence action against AMARE in %” value ([5]; 320 g/ha) was 100%. For the same compound, the “Post-emergence action against ORYSA in %” value (Oryza sativa (ORYSA) [6]) was 10%, the “Post-emergence action against AVEFA in %” value (Avena fatua (AVEFA) [7]; 80 g/ha) was 80% and the “Post-emergence action against AVEFA in %” value (Avena fatua (AVEFA) [7]; 320 g/ha) was 90%. For the same compound, the “Post-emergence action against PHBPU in %” value ([8]; dosage 80 g/ha) was 90%, the “Post-emergence action against PHBPU in %” value ([8]; dosage 320 g/ha) was 100% and the “Post-emergence action against VERPE in %” value ([9]; 320 g/ha, VERPE) was 80%. The “Post-emergence action against VERPE in %” value ([9]; dosage 80 g/ha) was 80%, the “Post-emergence action against AMARE in %” value ([10]; 80 g/ha, visual rating about 3 weeks after treatment vs untreated controls (100% = plants have died, 0% = like control plants)) was 80% and the “Post-emergence action against AMARE in %” value [10, 26] was 80%. For the same compound, the “Pre-emergence action against LOLRI in %” value (Lolium rigidum (LOLRI) [11]) was 90%, the “Pre-emergence action against MATIN in %” value ([12]; dosage 80 g/ha) was 90% and the “Pre-emergence action against MATIN in %” value ([12]; dosage 320 g/ha) was 90%. The “Post-emergence action against ABUTH in %” value ([13]; 80 g/ha) was 80%, the “Post-emergence action against ABUTH in %” value ([13]; 320 g/ha) was 80% and the “Pre-emergence action against ALOMY” value ([14]; 320 g/ha) was 90%. For the same compound, the “Pre-emergence action against VIOTR in %” value (Viola tricolor (VIOTR) [15]; 320 g/ha, Viola tricolor) was 100%, the “Pre-emergence action against VIOTR in %” value (Viola tricolor (VIOTR) [15]; dosage 80 g/ha) was 100% and the “Pre-emergence action against PHBPU in %” value ([16]; dosage 80 g/ha) was 80%. The “Pre-emergence action against PHBPU in %” value ([16]; dosage 320 g/ha) was 90%, the “Post-emergence action against ALOMY in %” value ([17]; 80 g/ha) was 90% and the “Post-emergence action against ALOMY in %” value ([17]; 320 g/ha) was 100%. The “Pre-emergence action against POLCO in %” value ([18]; dosage 80 g/ha) was 80%, the “Pre-emergence action against POLCO in %” value ([18]; dosage 320 g/ha) was 100% and the “Post-emergence action against LOLRI in %” value (Lolium rigidum (LOLRI) [19]) was 90%. For the same compound, the “Pre-emergence action against VERPE in %” value ([20]; dosage 80 g/ha) was 80%, the “Pre-emergence action against VERPE in %” value ([20]; dosage 320 g/ha) was 90% and the “Post-emergence action against VIOTR in %” value (Viola tricolor (VIOTR) [21]; 80 g/ha) was 80%. For the same compound, the “Post-emergence action against VIOTR in %” value (Viola tricolor (VIOTR) [21]; 320 g/ha) was 90%, the “Post-emergence action against MATIN in %” value [22] was 80% and the “Pre-emergence action against ECHCG in %” value ([23]; dosage 80 g/ha) was 90%. The “Pre-emergence action against ECHCG in %” value ([23]; dosage 320 g/ha) was 100%, the “Pre-emergence action against ORYSA in %” value (Oryza sativa (ORYSA) [24]) was 20% and the “Post-emergence action against SETVI in %” value (Setaria viridis (SETVI) [25]) was 90%.

For `O=C(O)COc1nn(-c2nc(F)ccc2F)c(-c2ccc(F)nc2)c1Cl` [Example I-337], the “Post-emergence action against POLCO in %” value ([1]; dosage 80 g/ha) was 80%, the “Post-emergence action against POLCO in %” value ([1]; dosage 320 g/ha) was 80% and the “Post-emergence action against ECHCG in %” value ([2]; dosage 80 g/ha) was 80%. For the same compound, the “Post-emergence action against ECHCG in %” value ([2]; dosage 320 g/ha) was 90%, the “Pre-emergence action against SETVI in %” value (Setaria viridis (SETVI) [3]; dosage 80 g/ha) was 90% and the “Pre-emergence action against SETVI in %” value (Setaria viridis (SETVI) [3]; dosage 320 g/ha) was 100%. For the same compound, the “Pre-emergence action against AVEFA in %” value (Avena fatua (AVEFA) [4]) was 90%, the “Pre-emergence action against AMARE in %” value ([5]; 80 g/ha) was 90% and the “Pre-emergence action against AMARE in %” value ([5]; 320 g/ha) was 90%. The “Post-emergence action against ORYSA in %” value (Oryza sativa (ORYSA) [6]) was 20%, the “Post-emergence action against ZEAMX in %” value (Zea mays (ZEAMX)) was 10% and the “Post-emergence action against AVEFA in %” value (Avena fatua (AVEFA) [7]; 320 g/ha) was 80%. For the same compound, the “Post-emergence action against PHBPU in %” value ([8]; dosage 80 g/ha) was 90%, the “Post-emergence action against PHBPU in %” value ([8]; dosage 320 g/ha) was 90% and the “Post-emergence action against VERPE in %” value ([9]; 320 g/ha, VERPE) was 80%. For the same compound, the “Post-emergence action against VERPE in %” value ([9]; dosage 80 g/ha) was 80%, the “Post-emergence action against AMARE in %” value [10, 26] was 80% and the “Pre-emergence action against LOLRI in %” value (Lolium rigidum (LOLRI) [11]) was 100%. For the same compound, the “Pre-emergence action against MATIN in %” value ([12]; dosage 320 g/ha) was 90%, the “Post-emergence action against ABUTH in %” value ([13]; 80 g/ha) was 80% and the “Post-emergence action against ABUTH in %” value ([13]; 320 g/ha) was 80%. For the same compound, the “Pre-emergence action against ALOMY” value ([14]; 80 g/ha) was 80%, the “Pre-emergence action against ALOMY” value ([14]; 320 g/ha) was 90% and the “Pre-emergence action against VIOTR in %” value (Viola tricolor (VIOTR) [15]; 320 g/ha, Viola tricolor) was 100%. The “Pre-emergence action against VIOTR in %” value (Viola tricolor (VIOTR) [15]; dosage 80 g/ha) was 80%, the “Pre-emergence action against PHBPU in %” value ([16]; dosage 80 g/ha) was 80% and the “Pre-emergence action against PHBPU in %” value ([16]; dosage 320 g/ha) was 80%. The “Post-emergence action against ALOMY in %” value ([17]; 80 g/ha) was 90%, the “Post-emergence action against ALOMY in %” value ([17]; 320 g/ha) was 90% and the “Pre-emergence action against POLCO in %” value ([18]; dosage 80 g/ha) was 80%. For the same compound, the “Pre-emergence action against POLCO in %” value ([18]; dosage 320 g/ha) was 90%, the “Pre-emergence action against VERPE in %” value ([20]; dosage 80 g/ha) was 90% and the “Pre-emergence action against VERPE in %” value ([20]; dosage 320 g/ha) was 90%. The “Post-emergence action against VIOTR in %” value (Viola tricolor (VIOTR) [21]; 80 g/ha) was 80%, the “Post-emergence action against VIOTR in %” value (Viola tricolor (VIOTR) [21]; 320 g/ha) was 80% and the “Pre-emergence action against ECHCG in %” value ([23]; dosage 80 g/ha) was 80%. For the same compound, the “Pre-emergence action against ECHCG in %” value ([23]; dosage 320 g/ha) was 90%, the “Pre-emergence action against ORYSA in %” value (Oryza sativa (ORYSA) [24]) was 20% and the “Post-emergence action against SETVI in %” value (Setaria viridis (SETVI) [25]) was 80%.
